pIC50: −log10 of the molar value.
Test system: 843782-103-R-J1-PDC complex spheroid viability
Experiment: Anticancer human tumor 843782-103-R-J1-PDC patient-derived lung adenocarcinoma cell line growth inhibition [RAS]
Details: for pIC50: curve of first compound; for viability, T/C: stronger effect = lower value
Procedure, shortened: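 Agents were tested in combination matrices in half-log decrements from a top concentration at or near clinical Cmax (10 microM if undetermined). Targets were multi-cell spheroids of tumour lines plus HUVEC and MSC stromal cells.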
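Also: viability read after seven days of compound exposure.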

In the case of `C=CC(=O)Nc1cc(Nc2nccc(-c3cn(C)c4ccccc34)n2)c(OC)cc1N(C)CCN(C)C` + CCn1c(-c2cccnc2C(C)OC)c2c3cc(ccc31)N1CCOC(CC(NC(=O)C(C(C)C)N(C)C(=O)C3(F)CCN(C(=O)C#CC(C)(C)N(C)C)CC3)C(=O)N3CCCC(N3)C(=O)OCC(C)(C)C2)C1, the pIC50 (second compound 0.000949 µM) was 7.11, the pIC50 (second compound 0.003 µM) was 6.71 and the pIC50 (second compound 0.00949 µM) was 7.12. The pIC50 (second compound 0.03 µM) was 6.78, the pIC50 (second compound 0.0949 µM) was 7.04 and the pIC50 (second compound 0.3 µM) was 6.96. It also gave a viability, T/C (second compound 0.000949 µM, first compound 0.00316 µM) of 75.9%, a viability, T/C (second compound 0.000949 µM, first compound 0.01 µM) of 60.9% and a viability, T/C (second compound 0.000949 µM, first compound 0.0316 µM) of 68.2%. It also gave a viability, T/C (second compound 0.000949 µM, first compound 0.1 µM) of 45.1%, a viability, T/C (second compound 0.000949 µM, first compound 0.316 µM) of 33.5% and a viability, T/C (second compound 0.000949 µM, first compound 1 µM) of 31.5%. For the same compound, the viability, T/C (second compound 0.003 µM, first compound 0.00316 µM) was 68.7%, the viability, T/C (second compound 0.003 µM, first compound 0.01 µM) was 57.3% and the viability, T/C (second compound 0.003 µM, first compound 0.0316 µM) was 66.3%. For the same compound, the viability, T/C (second compound 0.003 µM, first compound 0.1 µM) was 64.3%, the viability, T/C (second compound 0.003 µM, first compound 0.316 µM) was 39.6% and the viability, T/C (second compound 0.003 µM, first compound 1 µM) was 30.9%. For the same compound, the viability, T/C (second compound 0.00949 µM, first compound 0.00316 µM) was 67.5%, the viability, T/C (second compound 0.00949 µM, first compound 0.01 µM) was 69.1% and the viability, T/C (second compound 0.00949 µM, first compound 0.0316 µM) was 73%. The viability, T/C (second compound 0.00949 µM, first compound 0.1 µM) was 43.9%, the viability, T/C (second compound 0.00949 µM, first compound 0.316 µM) was 40.8% and the viability, T/C (second compound 0.00949 µM, first compound 1 µM) was 26.8%. The viability, T/C (second compound 0.03 µM, first compound 0.00316 µM) was 65.9%, the viability, T/C (second compound 0.03 µM, first compound 0.01 µM) was 73.6% and the viability, T/C (second compound 0.03 µM, first compound 0.0316 µM) was 58.9%. The viability, T/C (second compound 0.03 µM, first compound 0.1 µM) was 55.3%, the viability, T/C (second compound 0.03 µM, first compound 0.316 µM) was 44.4% and the viability, T/C (second compound 0.03 µM, first compound 1 µM) was 31.9%. It also gave a viability, T/C (second compound 0.0949 µM, first compound 0.00316 µM) of 73.4%, a viability, T/C (second compound 0.0949 µM, first compound 0.01 µM) of 62.6% and a viability, T/C (second compound 0.0949 µM, first compound 0.0316 µM) of 60.8%. It also gave a viability, T/C (second compound 0.0949 µM, first compound 0.1 µM) of 46.9%, a viability, T/C (second compound 0.0949 µM, first compound 0.316 µM) of 43% and a viability, T/C (second compound 0.0949 µM, first compound 1 µM) of 26.4%. For the same compound, the viability, T/C (second compound 0.3 µM, first compound 0.00316 µM) was 68%, the viability, T/C (second compound 0.3 µM, first compound 0.01 µM) was 66.2% and the viability, T/C (second compound 0.3 µM, first compound 0.0316 µM) was 63.9%. The viability, T/C (second compound 0.3 µM, first compound 0.1 µM) was 51.6%, the viability, T/C (second compound 0.3 µM, first compound 0.316 µM) was 35.2% and the viability, T/C (second compound 0.3 µM, first compound 1 µM) was 31.5%.
